Tests used:
[1] = AUC (0 to 24 hrs) in human at 600 mg, po once daily after 14 days coadministered with moxifloxacin at 400 mg, po once daily; format: ADME, organism-based; design: dose 600 mg, time < 24 hr, route oral; details: plasma
[2] = Plasma concentration in human at 600 mg, po once daily after 14 days coadministered with moxifloxacin at 400 mg, po once daily; format: ADME, organism-based
[3] = AUC (0 to 24 hrs) in human at 400 mg, po once daily after 14 days coadministered with rifampin at 600 mg, po once daily; format: ADME, organism-based; design: dose 400 mg, time < 24 hr, route oral; details: plasma
[4] = AUC (0 to 24 hrs) in human at 400 mg, po once daily after 4 days; format: ADME, organism-based; design: dose 400 mg, time < 24 hr, route oral; details: plasma
[5] = Plasma concentration in human at 400 mg, po once daily after 14 days coadministered with rifampin at 600 mg, po once daily; format: ADME, organism-based
[6] = Plasma concentration in human at 400 mg, po once daily after 4 days; format: ADME, organism-based
[7] = Tmax in human at 400 mg, po once daily after 14 days coadministered with rifampin at 600 mg, po once daily; format: ADME, organism-based; details: in vivo
[8] = Tmax in human at 400 mg, po once daily after 4 days; format: ADME, organism-based; details: in vivo
[9] = AUC (0 to 24 hrs) in human with MDR1 3435 CC genotype at 400 mg, po once daily after 14 days coadministered with rifampin at 600 […], po once daily; format: ADME, organism-based; design: time < 24 hr, route oral; details: plasma
[10] = AUC (0 to 24 hrs) in human with MDR1 3435 CC genotype at 400 mg, po once daily after 4 days; format: ADME, organism-based; design: dose 400 mg, time < 24 hr, route oral; details: plasma
[11] = AUC (0 to 24 hrs) in human with MDR1 3435 CC or CT genotype at 400 mg, po once daily after 4 days; format: ADME, organism-based; design: dose 400 mg, time < 24 hr, route oral; details: plasma
[12] = Plasma concentration in human with MDR1 3435 CC genotype at 400 mg, po once daily after 14 days coadministered with rifampin at 600 […], po once daily; format: ADME, organism-based; design: route oral
[13] = Plasma concentration in human with MDR1 3435 CC or CT genotype at 400 mg, po once daily after 14 days coadministered with rifampin at 600 […], po once daily; format: ADME, organism-based; design: route oral
[14] = Plasma concentration in human with MDR1 3435 CC genotype at 400 mg, po once daily after 4 days; format: ADME, organism-based
[15] = Plasma concentration in human with MDR1 3435 CC or CT genotype at 400 mg, po once daily after 4 days; format: ADME, organism-based
[16] = Tmax in human with MDR1 3435 CC genotype at 400 mg, po once daily after 14 days coadministered with rifampin at 600 […], po once daily; format: ADME, organism-based; design: route oral; details: in vivo
[17] = Tmax in human with MDR1 3435 CC or CT genotype at 400 mg, po once daily after 14 days coadministered with rifampin at 600 […], po once daily; format: ADME, organism-based; design: route oral; details: in vivo
[18] = Tmax in human with MDR1 3435 CC genotype at 400 mg, po once daily after 4 days; format: ADME, organism-based; details: in vivo
[19] = Tmax in human with MDR1 3435 CC or CT genotype at 400 mg, po once daily after 4 days; format: ADME, organism-based; details: in vivo
[20] = AUC (0 to 24 hrs) in human with MDR1 3435 CT or TT genotype at 400 mg, po once daily after 14 days coadministered with rifampin at 600 mg, po once daily; details: plasma

| Structure (SMILES) | AUC at 24 h [1] [ng·h/mL] | concentration at 336 h [2] [ng/mL] | AUC at 24 h [3] [ng·h/mL] | AUC at 24 h [4] [ng·h/mL] | concentration at 336 h [5] [ng/mL] | concentration at 96 h [6] [ng/mL] | Tmax [7] [h] | Tmax [8] [h] | AUC at 24 h [9] [ng·h/mL] | AUC at 24 h [10] [ng·h/mL] | AUC at 24 h [11] [ng·h/mL] | concentration at 336 h [12] [ng/mL] | concentration at 336 h [13] [ng/mL] | concentration at 96 h [14] [ng/mL] | concentration at 96 h [15] [ng/mL] | Tmax [16] [h] | Tmax [17] [h] | Tmax [18] [h] | Tmax [19] [h] | AUC at 24 h [20] [ng·h/mL] |
| --- | --- | --- | --- | --- | --- | --- | --- | --- | --- | --- | --- | --- | --- | --- | --- | --- | --- | --- | --- | --- |
| CO[C@H]1/C=C/O[C@@]2(C)Oc3c(C)c(O)c4c(O)c(c(/C=N/N5CCN(C)CC5)c(O)c4c3C2=O)NC(=O)/C(C)=C\C=C\[C@H](C)[C@H](O)[C@@H](C)[C@@H](O)[C@@H](C)[C@H](OC(C)=O)[C@@H]1C [RIFAMPIN] | 44000 | 9900 | – | – | – | – | – | – | – | – | – | – | – | – | – | – | – | – | – | – |
| COc1c(N2C[C@@H]3CCCN[C@@H]3C2)c(F)cc2c(=O)c(C(=O)O)cn(C3CC3)c12 [MOXIFLOXACIN] | – | – | 29200 | 39400 | 3600 | 3800 | 1.56 | 1.97 | 25500 | 37200 | 39700 | 2940 | 3830 | 3530 | 3810 | 1.98 | 1.05 | 1.47 | 1.91 | 30300 |

Source: ChEMBL document CHEMBL1155148 (Antimicrob Agents Chemother, 2007)
